According to ChEMBL document CHEMBL5465560, “Selectivity Literature for EUbOPEN Chemogenomic Library” (2024):

What was measured:
[1] = biological target: T1, Protein kinase C iota type (Homo sapiens) (UniProt P41743); assay: Selectivity interaction (Millipore kinase profiler) EUB0000124b PRKCI; settings: at 10 µM
T1 sequence (whole entry): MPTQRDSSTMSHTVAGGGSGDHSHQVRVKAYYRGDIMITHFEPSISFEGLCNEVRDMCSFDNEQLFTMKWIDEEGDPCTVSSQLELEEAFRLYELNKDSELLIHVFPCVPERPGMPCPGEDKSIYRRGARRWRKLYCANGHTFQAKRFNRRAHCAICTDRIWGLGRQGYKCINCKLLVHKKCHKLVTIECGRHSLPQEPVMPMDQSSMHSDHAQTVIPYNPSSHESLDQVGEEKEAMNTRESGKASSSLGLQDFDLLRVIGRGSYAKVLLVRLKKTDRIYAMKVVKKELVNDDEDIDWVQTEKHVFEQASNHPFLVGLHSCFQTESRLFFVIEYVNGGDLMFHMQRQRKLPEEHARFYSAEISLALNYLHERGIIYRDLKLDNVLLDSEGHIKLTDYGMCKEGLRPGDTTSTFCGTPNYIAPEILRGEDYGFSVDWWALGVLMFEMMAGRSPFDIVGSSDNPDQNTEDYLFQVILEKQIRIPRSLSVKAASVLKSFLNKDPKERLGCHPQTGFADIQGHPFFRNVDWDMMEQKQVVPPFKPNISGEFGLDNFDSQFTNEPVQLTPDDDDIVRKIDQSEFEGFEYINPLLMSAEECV

[2] = biological target: Death-associated protein kinase 1 (Homo sapiens, UniProt P53355); assay: Selectivity interaction (KinomeScan (DiscoverX)) EUB0001079a DAPK1; settings: at 1 µM
[3] = biological target: Tyrosine-protein kinase HCK (Homo sapiens) (UniProt P08631); assay: Selectivity interaction (KinomeScan (DiscoverX)) EUB0001079a HCK; settings: at 1 µM
[4] = biological target: T2, Homeodomain-interacting protein kinase 4 (Homo sapiens) (UniProt Q8NE63); assay: Selectivity interaction (KinomeScan (DiscoverX)) EUB0000092b HIPK4; settings: at 10 µM
T2 sequence (whole entry): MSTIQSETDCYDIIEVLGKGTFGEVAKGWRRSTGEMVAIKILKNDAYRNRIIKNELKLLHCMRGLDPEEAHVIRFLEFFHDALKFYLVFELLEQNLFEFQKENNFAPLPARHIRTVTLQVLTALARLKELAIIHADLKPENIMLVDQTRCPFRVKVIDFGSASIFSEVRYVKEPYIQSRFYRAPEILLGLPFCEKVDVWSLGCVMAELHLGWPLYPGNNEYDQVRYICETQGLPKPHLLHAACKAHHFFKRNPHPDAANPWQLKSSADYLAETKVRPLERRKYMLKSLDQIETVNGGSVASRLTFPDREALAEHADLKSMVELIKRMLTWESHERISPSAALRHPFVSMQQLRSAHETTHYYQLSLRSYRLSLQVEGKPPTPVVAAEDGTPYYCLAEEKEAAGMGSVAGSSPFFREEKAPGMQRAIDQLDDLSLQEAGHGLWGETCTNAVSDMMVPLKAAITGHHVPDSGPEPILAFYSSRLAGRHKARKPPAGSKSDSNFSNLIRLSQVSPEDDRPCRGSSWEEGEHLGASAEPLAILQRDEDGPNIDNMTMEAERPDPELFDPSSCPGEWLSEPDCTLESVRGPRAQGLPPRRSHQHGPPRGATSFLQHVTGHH

[5] = biological target: Serine/threonine-protein kinase PAK 1 (Homo sapiens) (UniProt Q13153); assay: Selectivity interaction (KinomeScan (DiscoverX)) EUB0000092b PAK1; settings: at 10 µM
[6] = biological target: Mitogen-activated protein kinase 3 (Homo sapiens, UniProt P27361); assay: Selectivity interaction (KinomeScan (DiscoverX)) EUB0000045b MAPK3
[7] = biological target: T3, Serine/threonine-protein kinase haspin (Homo sapiens) (UniProt Q8TF76); assay: Selectivity interaction (ProQinase) EUB0000171b GSG2
T3 sequence (whole entry): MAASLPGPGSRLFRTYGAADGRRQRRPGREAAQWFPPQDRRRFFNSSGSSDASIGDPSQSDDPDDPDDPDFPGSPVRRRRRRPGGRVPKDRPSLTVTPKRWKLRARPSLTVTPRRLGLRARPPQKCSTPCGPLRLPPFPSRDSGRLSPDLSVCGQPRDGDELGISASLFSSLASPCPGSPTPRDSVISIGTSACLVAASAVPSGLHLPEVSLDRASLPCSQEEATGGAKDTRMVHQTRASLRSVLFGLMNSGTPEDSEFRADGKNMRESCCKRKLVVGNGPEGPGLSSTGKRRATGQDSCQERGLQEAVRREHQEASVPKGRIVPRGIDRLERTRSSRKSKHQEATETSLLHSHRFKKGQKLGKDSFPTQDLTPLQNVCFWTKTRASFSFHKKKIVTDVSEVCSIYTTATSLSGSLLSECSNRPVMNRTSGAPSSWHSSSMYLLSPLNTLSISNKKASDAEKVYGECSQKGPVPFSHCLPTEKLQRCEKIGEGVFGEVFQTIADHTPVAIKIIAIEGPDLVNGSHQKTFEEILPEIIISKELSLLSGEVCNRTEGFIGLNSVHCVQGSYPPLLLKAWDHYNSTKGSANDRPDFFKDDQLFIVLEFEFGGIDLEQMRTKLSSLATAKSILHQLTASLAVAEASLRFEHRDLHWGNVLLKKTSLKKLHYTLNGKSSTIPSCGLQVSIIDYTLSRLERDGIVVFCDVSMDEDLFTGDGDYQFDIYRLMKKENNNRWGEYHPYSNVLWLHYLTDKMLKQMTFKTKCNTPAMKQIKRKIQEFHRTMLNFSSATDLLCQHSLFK

Sequence of Mitogen-activated protein kinase 3 (P27361 whole entry): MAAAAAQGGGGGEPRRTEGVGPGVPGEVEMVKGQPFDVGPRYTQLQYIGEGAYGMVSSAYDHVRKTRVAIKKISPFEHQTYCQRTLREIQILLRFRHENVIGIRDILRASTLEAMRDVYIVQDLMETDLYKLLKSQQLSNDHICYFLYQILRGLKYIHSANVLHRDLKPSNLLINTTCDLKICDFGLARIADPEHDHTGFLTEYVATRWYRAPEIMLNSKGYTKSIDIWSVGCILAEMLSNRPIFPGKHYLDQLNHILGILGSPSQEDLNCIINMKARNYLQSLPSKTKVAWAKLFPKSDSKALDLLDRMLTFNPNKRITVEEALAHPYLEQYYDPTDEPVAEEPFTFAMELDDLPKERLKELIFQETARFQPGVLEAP
Sequence of Tyrosine-protein kinase HCK (Homo sapiens) (P08631 2-526 limits assumed): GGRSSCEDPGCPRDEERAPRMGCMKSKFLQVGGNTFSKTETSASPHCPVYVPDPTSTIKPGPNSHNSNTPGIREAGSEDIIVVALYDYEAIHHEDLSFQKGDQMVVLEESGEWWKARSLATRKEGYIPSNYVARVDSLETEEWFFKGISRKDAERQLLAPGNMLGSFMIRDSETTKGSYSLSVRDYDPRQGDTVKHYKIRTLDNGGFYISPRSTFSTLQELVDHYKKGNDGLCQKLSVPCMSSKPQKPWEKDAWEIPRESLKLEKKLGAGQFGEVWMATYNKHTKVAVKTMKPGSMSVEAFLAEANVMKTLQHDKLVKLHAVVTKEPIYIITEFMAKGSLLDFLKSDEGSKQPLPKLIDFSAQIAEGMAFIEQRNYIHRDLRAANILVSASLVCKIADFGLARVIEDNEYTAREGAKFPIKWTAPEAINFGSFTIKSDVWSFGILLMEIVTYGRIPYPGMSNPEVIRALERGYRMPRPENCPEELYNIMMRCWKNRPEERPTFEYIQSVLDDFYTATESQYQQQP
Sequence of Serine/threonine-protein kinase PAK 1 (Homo sapiens) (Q13153 whole entry): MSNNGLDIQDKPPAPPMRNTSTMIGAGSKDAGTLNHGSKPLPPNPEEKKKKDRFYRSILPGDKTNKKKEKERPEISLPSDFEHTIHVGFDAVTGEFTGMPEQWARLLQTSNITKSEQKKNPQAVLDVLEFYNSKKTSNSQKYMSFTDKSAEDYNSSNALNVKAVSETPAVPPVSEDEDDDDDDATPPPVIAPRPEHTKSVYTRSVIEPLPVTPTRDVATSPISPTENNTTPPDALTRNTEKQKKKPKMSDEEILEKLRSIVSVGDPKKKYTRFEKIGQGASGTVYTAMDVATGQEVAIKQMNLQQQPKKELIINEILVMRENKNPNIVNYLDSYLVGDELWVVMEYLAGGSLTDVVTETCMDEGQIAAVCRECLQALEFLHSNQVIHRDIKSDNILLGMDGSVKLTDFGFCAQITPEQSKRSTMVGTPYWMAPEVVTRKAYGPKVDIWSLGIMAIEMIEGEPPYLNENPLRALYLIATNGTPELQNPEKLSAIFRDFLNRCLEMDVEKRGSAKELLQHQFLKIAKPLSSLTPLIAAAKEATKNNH
Sequence of Death-associated protein kinase 1 (P53355 whole entry, looked up): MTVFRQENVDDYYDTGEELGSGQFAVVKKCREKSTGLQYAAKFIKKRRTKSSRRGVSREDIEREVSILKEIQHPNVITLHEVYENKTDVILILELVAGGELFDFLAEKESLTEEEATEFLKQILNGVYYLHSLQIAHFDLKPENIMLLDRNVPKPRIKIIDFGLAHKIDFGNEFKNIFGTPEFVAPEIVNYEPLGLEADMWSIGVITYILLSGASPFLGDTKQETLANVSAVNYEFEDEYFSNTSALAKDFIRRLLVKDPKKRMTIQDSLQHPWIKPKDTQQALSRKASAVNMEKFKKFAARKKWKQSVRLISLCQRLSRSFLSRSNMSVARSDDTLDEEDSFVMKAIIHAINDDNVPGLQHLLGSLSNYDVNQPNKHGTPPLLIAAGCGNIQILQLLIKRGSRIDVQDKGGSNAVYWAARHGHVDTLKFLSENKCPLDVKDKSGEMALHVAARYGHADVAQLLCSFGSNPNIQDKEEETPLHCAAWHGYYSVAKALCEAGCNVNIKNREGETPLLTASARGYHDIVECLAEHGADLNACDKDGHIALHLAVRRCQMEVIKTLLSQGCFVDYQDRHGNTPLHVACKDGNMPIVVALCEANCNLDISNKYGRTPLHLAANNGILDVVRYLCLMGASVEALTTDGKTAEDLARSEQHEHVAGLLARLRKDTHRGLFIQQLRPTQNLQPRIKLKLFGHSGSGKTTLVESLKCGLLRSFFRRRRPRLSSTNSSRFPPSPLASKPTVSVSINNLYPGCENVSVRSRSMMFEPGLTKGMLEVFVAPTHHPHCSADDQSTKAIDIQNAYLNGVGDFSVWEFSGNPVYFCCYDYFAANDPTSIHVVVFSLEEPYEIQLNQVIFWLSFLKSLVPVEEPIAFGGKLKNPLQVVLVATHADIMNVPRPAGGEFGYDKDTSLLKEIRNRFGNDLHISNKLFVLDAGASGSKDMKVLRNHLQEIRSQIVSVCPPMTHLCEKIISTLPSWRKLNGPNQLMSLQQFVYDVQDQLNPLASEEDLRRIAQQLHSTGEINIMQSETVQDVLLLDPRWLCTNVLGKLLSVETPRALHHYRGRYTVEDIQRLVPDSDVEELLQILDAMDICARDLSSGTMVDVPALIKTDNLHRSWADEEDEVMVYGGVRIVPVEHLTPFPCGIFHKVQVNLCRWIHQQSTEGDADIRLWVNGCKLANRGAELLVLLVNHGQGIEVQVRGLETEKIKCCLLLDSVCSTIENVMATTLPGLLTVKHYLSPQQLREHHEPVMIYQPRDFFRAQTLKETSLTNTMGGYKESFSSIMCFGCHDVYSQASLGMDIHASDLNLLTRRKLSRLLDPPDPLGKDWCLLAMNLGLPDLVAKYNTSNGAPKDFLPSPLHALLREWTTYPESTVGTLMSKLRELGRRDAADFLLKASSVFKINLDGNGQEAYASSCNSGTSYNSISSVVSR

`CC(=O)Nc1cccc(-n2c(=O)n(C3CC3)c(=O)c3c(Nc4ccc(I)cc4F)n(C)c(=O)c(C)c32)c1` showed a % of control [1] of 83%.

Work on `Nc1cnc(N2CCc3cc(S(=O)(=O)Nc4c(F)cc(Cl)cc4F)cc(N4CCCC4=O)c32)nc1` [TP-020n] yielded a % of control [2] of 100% and a % of control [3] of 100%.

In the case of `CCC(=O)N1CCN(c2ccc(-n3c(=O)ccc4cnc5ccc(-c6cnc7ccccc7c6)cc5c43)cc2C(F)(F)F)CC1`, the % of control [4] is reported as 4.6% and the % of control [5] is reported as 73%.

`C=CC(=O)Nc1cc(-n2c(=O)ccc3cnc4ccc(-c5ccc(NS(C)(=O)=O)cc5)cc4c32)ccc1C` showed a % of control ([6]; at 1 µM) of 100% and a % of control ([6]; at 10 µM) of 79%.

For `C=CC(=O)Nc1cccc(C(=O)Nc2ccc(Nc3cc(-c4[nH]c(SC)nc4C)ccn3)cc2)c1`, the % of control ([7]; at 1 µM) was 84% and the % of control ([7]; at 5 µM) was 56%.
